In patent publication US20230172935A1, “METHODS OF MONITORING KRAS MUTATIONS” (Cardiff Oncology, Inc., priority 2020, published 2023):

Columns and labels:
xenograft tumor = conditions: well tolerated doses, oral administration; cited from earlier work
PLK1 = PLK1 (Homo sapiens, UniProt P53350); conditions: including other PLK members; cited from earlier work
[1] = system: mutant KRAS in cell free DNA in plasma; assay: Phase 1b/2 mCRC study, plasma KRAS mutant by ddPCR; format: in vivo, human; conditions: with FOLFIRI and bevacizumab
Description: Participants must have histologically confirmed metastatic and unresectable disease, and previously failed treatment or be intolerant to fluoropyrimidine and oxaliplatin with or without bevacizumab.
KRAS in cell free DNA in plasma from patients was periodically quantified using droplet digital PCR (BioRad), where percentage of KRAS that is mutant KRAS was determined. The lower limit of sensitivity of this assay was 0.001% mutant KRAS.
KRAS MAF was measured by digital droplet PCR (ddPCR) at baseline (Cycle 1 Day 1, pre-dose) and on-treatment (Day 1 of Cycles 2 to 9). […] Clinical responses were observed across different KRAS variants, including the 3 most common in CRC. […] In addition, patients with PR and SD tended to have lower on-treatment KRAS MAF than patients with early PD.

[2] = cited from earlier work
[3] = system: HT29 human colon adenocarcinoma xenografts; conditions: in combination with irinotecan; cited from earlier work
[4] = system: disseminated model of AML; conditions: in combination with cytarabine; cited from earlier work
[5] = system: HCT-116 KRAS mutant xenograft; assay: HCT-116 KRAS-mutant CRC xenograft model; format: in vivo
Text: FIG. 6A and FIG. 6B are graphs showing anti-tumor activity of onvansertib in combination with irinotecan and 5-FU in the HCT-116 KRAS-mutant CRC xenograft model.
(§1) Onvansertib, an oral and highly-selective PLK1 inhibitor, is a promising therapeutic option for KRAS-mutated CRC. PLK1, a key regulator of mitosis, is overexpressed in CRC and associated with poor clinical parameters.

[6] = system: cell lines, both from solid as well as hematologic tumors; conditions: large number of cell lines; cited from earlier work
cancer cell lines = conditions: cited from earlier work
[7] = system: advanced/metastatic solid tumors; conditions: evaluable patients; cited from earlier work
[8] = cited from earlier work; remark: listed apart in the source
DLD-1 cells = assay: Cell viability (CellTiterGlo) in KRAS mutant and WT isogenic CRC cells; format: cell-based; conditions: 72h treatment
Text: FIG. 5 is a graph showing cell viability in onvansertib-treated KRAS mutant and WT isogenic CRC cells.
as §1

PLK1, sequence (P53350 whole entry): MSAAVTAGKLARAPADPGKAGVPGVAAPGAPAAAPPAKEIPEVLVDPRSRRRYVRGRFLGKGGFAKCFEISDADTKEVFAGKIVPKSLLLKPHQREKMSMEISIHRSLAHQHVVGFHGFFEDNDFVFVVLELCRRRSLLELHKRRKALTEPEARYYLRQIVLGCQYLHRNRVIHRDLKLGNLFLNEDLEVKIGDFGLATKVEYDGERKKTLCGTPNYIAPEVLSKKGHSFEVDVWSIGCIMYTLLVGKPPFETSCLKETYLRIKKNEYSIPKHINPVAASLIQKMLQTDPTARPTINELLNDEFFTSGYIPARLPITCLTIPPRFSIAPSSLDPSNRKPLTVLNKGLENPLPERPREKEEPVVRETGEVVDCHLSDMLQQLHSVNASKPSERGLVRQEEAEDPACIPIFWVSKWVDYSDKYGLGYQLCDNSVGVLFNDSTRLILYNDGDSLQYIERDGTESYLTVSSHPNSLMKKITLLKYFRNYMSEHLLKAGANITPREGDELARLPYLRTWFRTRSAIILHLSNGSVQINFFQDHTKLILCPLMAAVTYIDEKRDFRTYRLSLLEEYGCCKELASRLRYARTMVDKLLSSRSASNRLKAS

Compound: CN1CCN(c2ccc(OC(F)(F)F)c(Nc3ncc4c(n3)-c3c(c(C(N)=O)nn3CCO)CC4)c2)CC1 [onvansertib, 1-(2-hydroxyethyl)-8-{[5-(4-methylpiperazin-1-yl)-2-(trifluoromethoxy)phenyl]amino}-4,5-dihydro-1H-pyrazolo[4,3-h] quinazoline-3-carboxamide]
- xenograft tumor growth (xenograft tumor): inhibits xenograft tumor growth
- specificity for PLK1 among a panel of 296 kinases (PLK1): high specificity
- patients with KRAS undetectable within the 1st cycle ([1]; 12 mg/m^2, 4 patients detectable at baseline): 4 patients
- patients with KRAS undetectable within the 1st cycle ([1]; 15 mg/m^2, 2 patients detectable at baseline): 1 patients
- change of KRAS mutant variants within the first cycle ([1]; five variants in 6 patients, 12 and 15 mg/m^2): decreased
- half-life ([2]; in vivo): about 24 hours
- oral bioavailability ([2]; rodent and nonrodent species): good oral bioavailability
- tumor regression compared to each agent alone [3]: enhanced tumor regression
- survival of animals [4]: prolonged survival
- combination effect ([5]; in combination with irinotecan and 5-FU): synergy
- anti-tumor activity ([5]; single agent): potent anti-tumor activity
- potency in proliferation assays [6]: low nanomolar activity
- effect on cell cycle (cancer cell lines): mitotic cell-cycle arrest followed by apoptosis
- patients with stable disease [7]: 5 of 16
- primary dose-limiting toxicities ([8]; in vivo): neutropenia and thrombocytopenia
- recovery of hematologic toxicities ([8]; reversible): ≤ 3 weeks
- recommended phase 2 dose ([8]; single agent): 24 mg/m^2
- mitotic arrest and cell death, mutant KRAS vs wild-type cells (DLD-1 cells): more profound mitotic arrest and cell death in mutant KRAS cells
